{"source": "patent US10703800B2", "about": "“Cell culture medium” (La Jolla Biologics, Inc., priority 2016, dated 2020)", "key": {"CHO.DXB11 cells [1]": {"tested_on": "CHO.DXB11 cells", "settings": "12 day fed-batch, prediction profile", "excerpt": "Ethanol was used in design of experiments (DOE) created with custom DOE design using JMP statistical software (World Wide Web.jmp.com/en_us/home.html). A response model was created using standard least squares to determine the significance of response from ethanol supplementation. Potential interactions with other supplemented components were also considered. Ethanol was fed daily between 0.0% and 0.1% using microscale bioreactors. FIG. 9 is a prediction response profile for Titer, Man5%, G0%, Acidic % and Basic % species while the change in response values for each of these is shown depicted in Table 4 below."}, "CHO.DXB11 cells [2]": {"tested_on": "CHO.DXB11 cells", "settings": "14 day fed-batch", "description": "(§1) Antibody production was performed as described above for mAb 1.\n(§2) Ethanol was fed daily between 0.0% and 0.018% v/v. Calculated cumulative cell culture concentration (concentration in vessel at time of cell harvest) of ethanol ranged between 0.0%-0.2% v/v. Bioreactor physical conditions were maintained at a pH of 7.0±0.2 shifted to 6.8±0.1, dissolved oxygen maintained at 30% air saturation and a constant temperature of 35° C. Basal and feed media were fully synthetic and chemically defined containing no animal derived components.\nThe same basal media was used in formulation #1 and #2. Feed formulation #1 and #2 were similar in composition containing the same type and amount of amino acids and vitamins. Salt and metal ion type and concentration were slightly varied. Both feeds were fully synthetic and chemically defined containing no animal derived components."}, "CHO.DG44 derived clone": {"tested_on": "CHO.DG44 derived clone", "settings": "higher ethanol concentrations (0.05%, 0.15% v/v fed daily) vs baseline, 13 day fed-batch, mAb 2", "description": "Antibody production was performed as described above for mAb 2. This cell line is a CHO.DG44 derived clone producing mAb 2.\nas §2, with “0.15%” for “0.018%”, “0.0%-1.35%” for “0.0%-0.2%”, “7.0±0.1” for “7.0±0.2”"}, "CHO.DXB11 cells [3]": {"tested_on": "CHO.DXB11 cells", "settings": "fed once daily, range 0.1% to 0.4% v/v", "description": "Ethanol cytotoxicity to CHO.DXB11 cells was determined by daily feed dosing. 4 mL of CHO cells at 3 e6/mL cellular density were seeded into 6 well deep plates, mixed at 150 RPM, and fed once daily with ethanol ranging from 0.1% to 0.4% volume to volume (v/v)."}, "CHO.DXB11 derived clone": {"tested_on": "CHO.DXB11 derived clone", "settings": "ethanol 0.057% v/v fed daily vs baseline, 12 day fed-batch, mAb1", "description": "To determine if ethanol altered mAb properties it was incorporated into fully defined and synthetic feed media and fed daily in a fed-batch process using micro—(15 mL working volume) bioreactors.\nas §1\nCell line A is a CHO.DXB11 derived clone producing mAb 1. Cell line B is a different CHO.DXB11 derived clone producing mAb1. The expression cassette is identical between the two cell lines.\n(§3) Ethanol was fed daily 0.0% or 0.057% v/v using microscale bioreactors and two different cellular clones producing mAb1. Calculated cumulative cell culture concentration (concentration in vessel at time of cell harvest) of ethanol ranged between 0.0%-0.51% v/v. Bioreactor physical conditions were maintained at a pH of 7.0±0.2, dissolved oxygen at 30% air saturation and a temperature of 35° C. during logarithmic cellular growth phase and shifted to 31° C. during cellular production phase (temperature was shifted one day before max viable cell density was reached). Basal and feed media were fully synthetic and chemically defined containing no animal derived components."}, "CHO.DXB11 cells [4]": {"tested_on": "CHO.DXB11 cells", "settings": "high ethanol 0.144% v/v vs low ethanol 0.072% v/v fed daily, 14 day fed-batch, mAb 1", "description": "as §1\nas §3, with “0.072% (Low Ethanol)” for “0.0%”, “0.144% (High Ethanol) v/v.” for “0.057% v/v using microscale bioreactors and two different cellular clones producing mAb1.”, “0.79%-1.58%” for “0.0%-0.51%”, “oxygen maintained” for “oxygen”, “30% of” for “30%”, “saturation,” for “saturation and a”"}, "CHO.DXB11 cells [5]": {"tested_on": "CHO.DXB11 cells", "assay": "Fatty acid cytotoxicity, daily feed dosing", "settings": "solubilized in ethanol, fed once daily, 10 μM to 160 μM", "description": "Fatty acid cytotoxicity to CHO.DXB11 cells was determined by daily feed dosing. 4 mL of CHO cells at 4 e^6/mL cellular density were seeded into 6 well deep plates, mixed at 150 RPM, and daily fed fatty acids. Fatty acids were solubilized in ethanol and fed once daily to increase well plate concentration from 10 μM to 160 μM."}, "[6]": {"settings": "Formulation 1, ethanol 0.018% v/v fed daily vs baseline lacking ethanol"}, "[7]": {"settings": "Formulation 2, ethanol 0.018% v/v fed daily vs baseline lacking ethanol"}}, "note": "Read-outs that look alike come from different tables or passages of the source.", "data": [{"smiles": "CCO", "note": "[Ethanol, ethanol]", "values": [{"measurement": "Change in Acidic %", "setting": "CHO.DXB11 cells [1]; 0.05% v/v ethanol fed daily", "result": "−4.7", "unit": "%"}, {"measurement": "Change in Basic %", "setting": "CHO.DXB11 cells [1]; 0.05% v/v ethanol fed daily", "result": "+1.0%"}, {"measurement": "Change in G0%", "setting": "CHO.DXB11 cells [1]; 0.05% v/v ethanol fed daily", "result": "−0.7", "unit": "%"}, {"measurement": "Change in Man5%", "setting": "CHO.DXB11 cells [1]; 0.05% v/v ethanol fed daily", "result": "−1.9", "unit": "%"}, {"measurement": "Change in Titer", "setting": "CHO.DXB11 cells [1]; 0.05% v/v ethanol fed daily", "result": "+2.0%"}, {"measurement": "Change in Acidic %", "setting": "CHO.DXB11 cells [1]; 0.1% v/v ethanol fed daily", "result": "−9.3", "unit": "%"}, {"measurement": "Change in Basic %", "setting": "CHO.DXB11 cells [1]; 0.1% v/v ethanol fed daily", "result": "+1.9%"}, {"measurement": "Change in G0%", "setting": "CHO.DXB11 cells [1]; 0.1% v/v ethanol fed daily", "result": "−1.3", "unit": "%"}, {"measurement": "Change in Man5%", "setting": "CHO.DXB11 cells [1]; 0.1% v/v ethanol fed daily", "result": "−3.8", "unit": "%"}, {"measurement": "Change in Titer", "setting": "CHO.DXB11 cells [1]; 0.1% v/v ethanol fed daily", "result": "+3.9%"}, {"measurement": "Effect on G0F glycan species", "setting": "CHO.DXB11 cells [2]; [6]", "result": "less"}, {"measurement": "Effect on G0 glycan species", "setting": "CHO.DXB11 cells [2]; [6]", "result": "less"}, {"measurement": "Effect on G1F glycan species", "setting": "CHO.DXB11 cells [2]; [6]", "result": "increased"}, {"measurement": "Effect on G2F glycan species", "setting": "CHO.DXB11 cells [2]; [6]", "result": "increased"}, {"measurement": "Effect on Man5 glycan species", "setting": "CHO.DXB11 cells [2]; [6]", "result": "increased"}, {"measurement": "Effect on acidic charge variants", "setting": "CHO.DXB11 cells [2]; [6]", "result": "less"}, {"measurement": "Effect on basic charge variants", "setting": "CHO.DXB11 cells [2]; [6]", "result": "increased"}, {"measurement": "Effect on G0F glycan species", "setting": "CHO.DXB11 cells [2]; [7]", "result": "greater"}, {"measurement": "Effect on G0 glycan species", "setting": "CHO.DXB11 cells [2]; [7]", "result": "decreased"}, {"measurement": "Effect on G1F glycan species", "setting": "CHO.DXB11 cells [2]; [7]", "result": "decreased"}, {"measurement": "Effect on G2F glycan species", "setting": "CHO.DXB11 cells [2]; [7]", "result": "greater"}, {"measurement": "Effect on Man5 glycan species", "setting": "CHO.DXB11 cells [2]; [7]", "result": "decreased"}, {"measurement": "Effect on acidic charge variants", "setting": "CHO.DXB11 cells [2]; [7]", "result": "higher"}, {"measurement": "Effect on G0F glycan species", "setting": "CHO.DG44 derived clone", "result": "decreased"}, {"measurement": "Effect on G0 glycan species", "setting": "CHO.DG44 derived clone", "result": "increased"}, {"measurement": "Effect on G1F glycan species", "setting": "CHO.DG44 derived clone", "result": "increased"}, {"measurement": "Effect on G2F glycan species", "setting": "CHO.DG44 derived clone", "result": "increased"}, {"measurement": "Effect on Man5 glycan species", "setting": "CHO.DG44 derived clone", "result": "decreased"}, {"measurement": "Effect on high molecular weight species", "setting": "CHO.DG44 derived clone", "result": "decreased"}, {"measurement": "Daily ethanol feeding above which cell growth rate and cell viability were negatively affected", "setting": "CHO.DXB11 cells [3]", "result": "exceeded 0.3 % v/v"}, {"measurement": "Effect on G1F % glycan species", "setting": "CHO.DXB11 derived clone; both cell lines (A and B)", "result": "increased"}, {"measurement": "Effect on G2F % glycan species", "setting": "CHO.DXB11 derived clone; both cell lines (A and B)", "result": "increased"}, {"measurement": "Effect on Man5% glycan species", "setting": "CHO.DXB11 derived clone; both cell lines (A and B)", "result": "decreased"}, {"measurement": "Effect on relative amount of acidic charge variants", "setting": "CHO.DXB11 derived clone; both cell lines (A and B)", "result": "decreased"}, {"measurement": "Effect on relative percentage of basic charge variants", "setting": "CHO.DXB11 derived clone; both cell lines (A and B)", "result": "slightly increasing"}, {"measurement": "Effect on G0% glycan species", "setting": "CHO.DXB11 derived clone; cell lines A and B", "result": "varied with respect to the cell line"}, {"measurement": "Effect on G0F % glycan species", "setting": "CHO.DXB11 derived clone; cell lines A and B", "result": "varied with respect to the cell line"}, {"measurement": "Effect on G0 glycan species", "setting": "CHO.DXB11 cells [4]", "result": "less"}, {"measurement": "Effect on G1F glycan species", "setting": "CHO.DXB11 cells [4]", "result": "greater"}, {"measurement": "Effect on G2F glycan species", "setting": "CHO.DXB11 cells [4]", "result": "greater"}, {"measurement": "Effect on Man5 glycan species", "setting": "CHO.DXB11 cells [4]", "result": "less"}, {"measurement": "Effect on high molecular weight species", "setting": "CHO.DXB11 cells [4]", "result": "less"}, {"measurement": "Effect on low molecular weight species", "setting": "CHO.DXB11 cells [4]", "result": "less"}]}, {"smiles": "CC/C=C\\C/C=C\\C/C=C\\CCCCCCCC(=O)O", "note": "[linolenic acid]", "values": [{"measurement": "Daily feeding concentration at which the supplement became toxic", "setting": "CHO.DXB11 cells [5]", "result": "around 40 μM"}]}]}
